Laboratory results taken from US9102670B2, “Pyrido-, pyrazo- and pyrimido-pyrimidine derivatives as mTOR inhibitors” (KuDOS Pharmaceuticals Limited, priority 2006, dated 2015).

tested on: phosphorylation of Serine 473 in Akt; assay: In Vitro Phospho-Ser473 Akt Assay in MDA-MB-468 cells; assay type: cell-based; settings: Homo sapiens, MDA-MB-468, read-out: IC50 values against mTOR, phospho-Ser473 Akt assay, MDA-MB-468 cells

Structure (SMILES) | IC50
C[C@H]1COCCN1c1nc(N2CCOC[C@@H]2C)c2ccc(-c3ccc(F)cc3)nc2n1 [Example 1aa] | < 100 nM
C[C@H]1COCCN1c1nc(N2CCOC[C@@H]2C)c2ccc(-c3ccc(F)c(C(N)=O)c3)nc2n1 [Example 1ab] | < 300 nM
CCCNC(=O)c1cc(-c2ccc3c(N4CCOC[C@@H]4C)nc(N4CCOC[C@@H]4C)nc3n2)ccc1F [Example 1ac] | < 100 nM
CNC(=O)c1cc(-c2ccc3c(N4CCOC[C@@H]4C)nc(N4CCOC[C@@H]4C)nc3n2)ccc1F [Example 1ae] | < 100 nM
CCNC(=O)c1cc(-c2ccc3c(N4CCOC[C@@H]4C)nc(N4CCOC[C@@H]4C)nc3n2)ccc1F [Example 1af] | < 100 nM
C[C@H]1COCCN1c1nc(N2CCOC[C@@H]2C)c2ccc(-c3ccc(F)c(C(=O)NCCO)c3)nc2n1 [Example 1ag] | < 100 nM
CC(C)NC(=O)c1cccc(-c2ccc3c(N4CCOC[C@@H]4C)nc(N4CCOC[C@@H]4C)nc3n2)c1 [Example 1al] | < 100 nM
C[C@H]1COCCN1c1nc(N2CCOC[C@@H]2C)c2ccc(-c3ccc(S(C)(=O)=O)cc3)nc2n1 [Example 1am] | < 300 nM
C[C@H]1COCCN1c1nc(N2CCOC[C@@H]2C)c2ccc(-c3ccc(C(N)=O)cc3)nc2n1 [Example 1ao] | < 300 nM
C[C@H]1COCCN1c1nc(N2CCOC[C@@H]2C)c2ccc(-c3cccc(C(N)=O)c3)nc2n1 [Example 1as] | < 100 nM
C[C@H]1COCCN1c1nc(N2CCOC[C@@H]2C)c2ccc(-c3cccc(NS(C)(=O)=O)c3)nc2n1 [Example 1at] | < 100 nM
C[C@H]1COCCN1c1nc(N2CCOC[C@@H]2C)c2ccc(-c3cc(F)nc(F)c3)nc2n1 [Example 1ay] | < 300 nM
COC(=O)c1cccc(-c2ccc3c(N4CCOC[C@@H]4C)nc(N4CCOC[C@@H]4C)nc3n2)c1 [Example 1ba] | < 100 nM
COCc1cccc(-c2ccc3c(N4CCOC[C@@H]4C)nc(N4CCOC[C@@H]4C)nc3n2)c1 [Example 1bb] | < 100 nM
C[C@H]1COCCN1c1nc(N2CCOC[C@@H]2C)c2ccc(-c3ccc(F)c(CO)c3)nc2n1 [Example 1bc] | < 100 nM
C[C@H]1COCCN1c1nc(N2CCOC[C@@H]2C)c2ccc(-c3cccc(S(N)(=O)=O)c3)nc2n1 [Example 1bd] | < 300 nM
COCCNC(=O)c1cccc(-c2ccc3c(N4CCOC[C@@H]4C)nc(N4CCOC[C@@H]4C)nc3n2)c1 [Example 1be] | < 100 nM
COC(=O)c1cc(-c2ccc3c(N4CCOC[C@@H]4C)nc(N4CCOC[C@@H]4C)nc3n2)ccc1OC [Example 1bg] | < 100 nM
C[C@H]1COCCN1c1nc(N2CCOC[C@@H]2C)c2ccc(-c3ccc(F)c(NS(C)(=O)=O)c3)nc2n1 [Example 1bk] | < 300 nM
C[C@H]1COCCN1c1nc(N2CCOC[C@@H]2C)c2ccc(-c3ccc(C#N)cc3)nc2n1 [Example 1bl] | < 100 nM
C[C@H]1COCCN1c1nc(N2CCOC[C@@H]2C)c2ccc(-c3ccc4[nH]ccc4c3)nc2n1 [Example 1bm] | < 100 nM
COc1ccc(-c2ccc3c(N4CCOC[C@@H]4C)nc(N4CCOC[C@@H]4C)nc3n2)cc1 [Example 1bo] | < 300 nM
C[C@H]1COCCN1c1nc(N2CCOC[C@@H]2C)c2ccc(-c3ccc(Cl)cc3)nc2n1 [Example 1bp] | < 300 nM
Cc1cccc(-c2ccc3c(N4CCOC[C@@H]4C)nc(N4CCOC[C@@H]4C)nc3n2)c1 [Example 1br] | < 100 nM

same assay, conditions: Homo sapiens, MDA-MB-468, read-out: IC50 values against mTOR, phospho-Ser473 Akt assay, MDA-MB-468 cells, upper bound

Structure (SMILES) | IC50
C[C@H]1COCCN1c1nc(N2CCOC[C@@H]2C)c2ccc(-c3ccc(F)nc3)nc2n1 [Example 1ah] | < 1000 nM
C[C@H]1COCCN1c1nc(N2CCOC[C@@H]2C)c2ccc(-c3ccncc3)nc2n1 [Example 1ar] | < 1000 nM
C[C@H]1COCCN1c1nc(N2CCOC[C@@H]2C)c2ccc(-c3ccnc(F)c3)nc2n1 [Example 1au] | < 1000 nM
C[C@H]1COCCN1c1nc(N2CCOC[C@@H]2C)c2ccc(-c3cccc(C#N)c3)nc2n1 [Example 1aw] | < 1000 nM
C[C@H]1COCCN1c1nc(N2CCOC[C@@H]2C)c2ccc(-c3cccc(C(=O)N4CCN(C)CC4)c3)nc2n1 [Example 1bf] | < 1000 nM
